The values that follow come from patent US11271237B2, “Organic redox molecules for flow batteries” (UCHICAGO ARGONNE, LLC, priority 2019, dated 2022).

≈ marks a conversion by molar mass, not a printed value.

The conditions of data set [1]: in a carbonate-based electrolyte; cited from earlier work.
A short description of data set [2]: Viscosity measurement with RHEOSENSE microfluidic MEMS viscometer. Format: physicochemical. To be noted: neat liquid, 23.4° C., shear rates 500-5000 s^−1 (EG1, EG2) or 100-4000 s^−1 (EG3). The protocol:
The viscosities of liquid TEMPO derivatives were determined at 23.4° C. using a RHEOSENSE microfluidic and micro-electro-mechanical-systems (MEMS) viscometer. The RHEOSENSE viscometer is based on the viscometer-rheometer-on-a-chip (VROC) technology. For TEMPO-EG1 and EG2, shear rates were swept from 500 s^−1 to 5000 s^−1, while the viscosity of TEMPO-EG3 was measured from 100 s^−1 to 4000 s^−1. […] Longer glycol ether chains lead to increases in viscosity, but the impact differs drastically.

The nature of data set [3]: Cyclic voltammetry in non-aqueous carbonate electrolyte. Format: physicochemical. As to conditions: 10 mM in 1.5 M LiPF6 in EC/EMC 3:7 (v/v); glassy carbon working electrode, lithium metal counter and reference; iR-correction. The protocol:
FIG. 3 provides cyclic voltammograms of 10 mM 4-(1,4-dioxabutyl)-2,2,6,6-tetramethylpiperidine-1-oxyl (TEMPO-EG1) in a non-aqueous electrolyte (1.5 M LiPF6 in a mixture of ethylene carbonate (EC) and ethyl methyl carbonate (EMC), 3:7 (v/v), respectively) at various scan rates given in mV/s. In FIG. 3, the cyclic voltammograms were measured at various rates with iR-correction applied. A glassy carbon electrode was used as the working electrode, while lithium metal strips were used as the counter and reference electrodes.
FIG. 4 provides cyclic voltammograms of 10 mM 4-(1,4,7-trioxaoctyl)-2,2,6,6-tetramethylpiperidine-1-oxyl (TEMPO-EG2) in a non-aqueous electrolyte (1.5 M LiPF6 in a mixture of ethylene carbonate (EC) and ethyl methyl carbonate (EMC), 3:7 (v/v), respectively) at various scan rates given in mV/s. In FIG. 4, the cyclic voltammograms were measured at various rates with iR-correction applied. A glassy carbon electrode was used as the working electrode, while lithium metal strips were used as the counter and reference electrodes.
FIG. 5 provides cyclic voltammograms of 10 mM 4-(1,4,7,10-tetraoxaundecyl)-2,2,6,6-tetramethylpiperidine-1-oxyl (TEMPO-EG3) in a non-aqueous electrolyte (1.5 M LiPF6 in a mixture of ethylene carbonate (EC) and ethyl methyl carbonate (EMC), 3:7 (v/v), respectively) at various scan rates given in mV/s. In FIG. 5, the cyclic voltammograms were measured at various rates with iR-correction applied. A glassy carbon electrode was used as the working electrode, while lithium metal strips were used as the counter and reference electrodes.

A short description of data set [4]: Cyclic voltammetry in aqueous electrolytes. To be noted: for redox potential: Pt disk working electrode, Pt coil counter. Format: physicochemical. The protocol:
Cyclic voltammograms of 10 mM TEMPO-EG3 in an aqueous electrolyte (1 M aqueous sulfuric acid) were measured at various scan rates given in mV/s. A Pt disk was used as the working electrode, while the counter electrode was a Pt coil and the reference electrode was Ag/AgCl.
Cyclic voltammograms of 10 mM TEMPO-EG3 in an aqueous electrolyte (1M aqueous sodium chloride) were measured at various scan rates given in mV/s. A Pt disk was used as the working electrode, while the counter electrode was a Pt coil and the reference electrode was Ag/AgCl.

For the molecule `COCCOc1cc(C(C)(C)C)c(OC)cc1C(C)(C)C` [DBMMEB, 1,4-di-tert-butyl-2-methoxy-5-(2-rnethoxyethoxy)benzene], the solubility in data set [1] is 600 mM (≈ 177 mg/mL).

For `COCCOC1CC(C)(C)N([O])C(C)(C)C1` [TEMPO-EG1, 4-(2-methoxyethoxy)-2,2,6,6-tetramethylpiperidine-1-oxyl], the viscosity in data set [2] stood at 10.23 mPa·s. Also, in data set [3], the redox potential amounted to 3.53 V vs. Li/Li^+.

As for `COCCOCCOC1CC(C)(C)N([O])C(C)(C)C1` [TEMPO-EG2, 4-(3,6-dioxaheptyloxy)-2,2,6,6-tetramethylpiperidine-1-oxyl], the viscosity in data set [2] came to 10.88 mPa·s. For the same molecule, in data set [3], the redox potential is 3.53 V vs. Li/Li^+.

For `COCCOCCOCCOC1CC(C)(C)N([O])C(C)(C)C1` [TEMPO-EG3, 4-(3,6,9-trioxadecyloxy)-2,2,6,6-tetramethylpiperidine-1-oxyl], the redox potential result in data set [4] (10 mM in 1M aqueous sodium chloride (neutral electrolyte)) is “about 0.59 V vs. Ag/AgCl”; in data set [4] (10 mM in 1 M aqueous sulfuric acid (acidic electrolyte)), “about 0.55 V vs. Ag/AgCl”; in data set [3] it was 3.53 V vs. Li/Li^+. In data set [4] (cyclic voltammetry in common aqueous electrolytes), the electrochemical reversibility result is given as “excellent electrochemical reversibility”. In data set [2], this molecule showed a viscosity of 21.30 mPa·s.
